Source: patent publication US7981893B2, “Heteroaryl compounds, compositions thereof, and methods of treatment therewith” (Signal Pharmaceuticals, LLC, priority 2006, dated 2011)

Compound	melting point [°C]
O=c1[nH]c2ncc(-c3ccc(O)cc3)nc2n1CCO [Compound 105, 1-(2-Hydroxyethyl)-6-(4-hydroxyphenyl)-1H-imidazo[4,5-b]pyrazin-2(3H)-one]	308 to 310
Cl.O=c1[nH]c2ncc(-c3ccc(O)cc3)nc2n1CC1CCCN1 (stereo not drawn)	178 to 180
COCCNc1ncc(-c2cnc3[nH]c(=O)n(CC4CCCCC4)c3n2)cn1 [Compound 212, 1-(Cyclohexylmethyl)-6-(2-(2-methoxyethylamino)pyrimidin-5-yl)-1H-imidazo[4,5-b]pyrazin-2(3H)-one]	> 250
O=c1[nH]c2ncc(-c3ccc(-c4n[nH]c(C(F)(F)F)n4)cc3)nc2n1CC1CCCCC1 [Compound 163, 1-(Cyclohexylmethyl)-6-(4-(5-(trifluoromethyl)-1H-1,2,4-triazol-3-yl)phenyl)-1H-imidazo[4,5-b]pyrazin-2(3H)-one]	303 to 305
Nc1ccc(-c2cnc3[nH]c(=O)n(CC4CCOCC4)c3n2)cn1 [Compound 232, 6-(6-Aminopyridin-3-yl)-1-((tetrahydro-2H-pyran-4-yl)methyl)-1H-imidazo[4,5-b]pyrazin-2(3H)-one]	> 260
O=c1[nH]c2ncc(-c3cncnc3)nc2n1CC1CCCCC1 [Compound 230, 1-(Cyclohexylmethyl)-6-(pyrimidin-5-yl)-1H-imidazo[4,5-b]pyrazin-2(3H)-one]	> 260
CC(C)NC(=O)c1ccc(-c2cnc3[nH]c(=O)n(CC4CCCCC4)c3n2)cc1 [Compound 104, 4-(3-(Cyclohexylmethyl)-2-oxo-2,3-dihydro-1H-imidazo[4,5-b]pyrazin-5-yl)-N-isopropylbenzamide]	264 to 268
CC(c1ccccc1)n1c(=O)[nH]c2ncc(-c3ccnc4ccccc34)nc21 (stereo not drawn) [Compound 70, 1-(1-phenylethyl)-6-(quinolin-4-yl)-1H-imidazo[4,5-b]pyrazin-2(3H)-one]	252 to 254
O=c1[nH]c2ncc(-c3ccc(-c4ncc[nH]4)cc3)nc2n1CCC1CCOCC1 [Compound 216, 6-(4-(1H-imidazol-2-yl)phenyl)-1-(2-(tetrahydro-2H-pyran-4-yl)ethyl)-1H-imidazo[4,5-b]pyrazin-2(3H)-one]	293 to 295
O=c1[nH]c2ncc(-c3ccc4[nH]ccc4c3)nc2n1CC1CCOCC1 [Compound 146, 6-(1H-Indol-5-yl)-1-((tetrahydro-2H-pyran-4-yl)methyl)-1H-imidazo[4,5-b]pyrazin-2(3H)-one]	305 to 308
CC(C)(O)c1ccc(-c2cnc3[nH]c(=O)n(CC4CCCCC4)c3n2)cc1 [Compound 114, 1-(Cyclohexylmethyl)-6-(4-(2-hydroxypropan-2-yl)phenyl)-1H-imidazo[4,5-b]pyrazin-2(3H)-one]	226 to 228
C[C@H](c1ccccc1)n1c(=O)[nH]c2ncc(-c3ccc(-c4nc[nH]n4)cc3)nc21 [Compound 249, (R)-6-(4-(1H-1,2,4-triazol-3-yl)phenyl)-1-(1-phenylethyl)-1H-imidazo[4,5-b]pyrazin-2(3H)-one]	258 to 260
O=c1[nH]c2ncc(-c3ccc(-n4ccnc4)cc3)nc2n1CC1CCCCC1 [Compound 151, 6-(4-(1H-Imidazol-1-yl)phenyl)-1-(cyclohexylmethyl)-1H-imidazo[4,5-b]pyrazin-2(3H)-one]	284 to 287
O=c1[nH]c2ncc(-c3cn[nH]c3)nc2n1CC1CCCCC1 [Compound 126, 1-(Cyclohexylmethyl)-6-(1H-pyrazol-4-yl)-1H-imidazo[4,5-b]pyrazin-2(3H)-one]	246 to 248
NCc1nc(-c2ccc(-c3cnc4[nH]c(=O)n(CCC5CCOCC5)c4n3)cc2)n[nH]1 [Compound 220, 6-(4-(5-(aminomethyl)-1H-1,2,4-triazol-3-yl)phenyl)-1-(2-(tetrahydro-2H-pyran-4-yl)ethyl)-1H-imidazo[4,5-b]pyrazin-2(3H)-one]	258 to 260
